Test system: NOMO1
Assay: cell viability relative to DMSO control; higher = less cytotoxic
Conditions: 48 h
In short: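 Viability, reported as a per-plate percentage of DMSO wells with cell-free wells as background, came from CellTiter-Glo One luminescence. Reading took place after 48 h at 37°C. Before that, NOMO1 or SEM (500 cells/well) or P12-Ichikawa (1000 cells/well) leukemia cells, adapted for at least four passages in each medium, were seeded in 1536-well plates (5 μl) and pin-dosed with library compounds in DMSO, 47 μM to 0.79 nM over 11 threefold points.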

[1] = HPLM + 10% dialyzed FBS, 0.000781 µM
[2] = HPLM + 10% dialyzed FBS, 0.00234 µM
[3] = HPLM + 10% dialyzed FBS, 0.00702 µM
[4] = HPLM + 10% dialyzed FBS, 0.0211 µM
[5] = HPLM + 10% dialyzed FBS, 0.0632 µM
[6] = HPLM + 10% dialyzed FBS, 0.19 µM
[7] = HPLM + 10% dialyzed FBS, 0.569 µM
[8] = HPLM + 10% dialyzed FBS, 1.71 µM
[9] = HPLM + 10% dialyzed FBS, 5.12 µM
[10] = HPLM + 10% dialyzed FBS, 15.4 µM
[11] = HPLM + 10% dialyzed FBS, 46.1 µM
[12] = RPMI 5 mM glucose + 10% FBS, 0.000781 µM
[13] = RPMI 5 mM glucose + 10% FBS, 0.00234 µM
[14] = RPMI 5 mM glucose + 10% FBS, 0.00702 µM
[15] = RPMI 5 mM glucose + 10% FBS, 0.0211 µM
[16] = RPMI 5 mM glucose + 10% FBS, 0.0632 µM
[17] = RPMI 5 mM glucose + 10% FBS, 0.19 µM
[18] = RPMI 5 mM glucose + 10% FBS, 0.569 µM
[19] = RPMI 5 mM glucose + 10% FBS, 1.71 µM
[20] = RPMI 5 mM glucose + 10% FBS, 5.12 µM
[21] = RPMI 5 mM glucose + 10% FBS, 15.4 µM
[22] = RPMI 5 mM glucose + 10% FBS, 46.1 µM
[23] = RPMI 5 mM glucose + 10% dialyzed FBS, 0.000781 µM
[24] = RPMI 5 mM glucose + 10% dialyzed FBS, 0.00234 µM
[25] = RPMI 5 mM glucose + 10% dialyzed FBS, 0.00702 µM
[26] = RPMI 5 mM glucose + 10% dialyzed FBS, 0.0211 µM
[27] = RPMI 5 mM glucose + 10% dialyzed FBS, 0.0632 µM
[28] = RPMI 5 mM glucose + 10% dialyzed FBS, 0.19 µM
[29] = RPMI 5 mM glucose + 10% dialyzed FBS, 0.569 µM
[30] = RPMI 5 mM glucose + 10% dialyzed FBS, 1.71 µM
[31] = RPMI 5 mM glucose + 10% dialyzed FBS, 5.12 µM
[32] = RPMI 5 mM glucose + 10% dialyzed FBS, 15.4 µM
[33] = RPMI 5 mM glucose + 10% dialyzed FBS, 46.1 µM

Row | SMILES | cell viability [1] [%] | cell viability [2] [%] | cell viability [3] [%] | cell viability [4] [%] | cell viability [5] [%] | cell viability [6] [%] | cell viability [7] [%] | cell viability [8] [%] | cell viability [9] [%] | cell viability [10] [%] | cell viability [11] [%] | cell viability [12] [%] | cell viability [13] [%] | cell viability [14] [%] | cell viability [15] [%] | cell viability [16] [%] | cell viability [17] [%] | cell viability [18] [%] | cell viability [19] [%] | cell viability [20] [%] | cell viability [21] [%] | cell viability [22] [%] | cell viability [23] [%] | cell viability [24] [%] | cell viability [25] [%] | cell viability [26] [%] | cell viability [27] [%] | cell viability [28] [%] | cell viability [29] [%] | cell viability [30] [%] | cell viability [31] [%] | cell viability [32] [%] | cell viability [33] [%]
1 | O=C(O)Cc1cccc(OCCCN(Cc2cccc(C(F)(F)F)c2Cl)CC(c2ccccc2)c2ccccc2)c1 | 122 | 123 | 136 | 110 | 114 | 108 | 118 | 99.3 | 106 | 118 | 114 |  |  |  |  |  |  |  |  |  |  |  |  |  |  |  |  |  |  |  |  |  | 
2 | CS[C@H]1SC[C@@H]2C(=O)N(C)[C@H](C(C)C)C(=O)OC[C@H](NC(=O)c3cnc4ccccc4n3)C(=O)N[C@H](C)C(=O)N(C)[C@H]1C(=O)N(C)[C@H](C(C)C)C(=O)OC[C@H](NC(=O)c1cnc3ccccc3n1)C(=O)N[C@H](C)C(=O)N2C | 90.5 | 92.4 | 81 | 34 | 7.25 | 7.68 | 7.01 | 6.88 | 6.12 | 5.83 | 3.83 | 86.1 | 83 | 92.4 | 44.5 | 5.63 | 5.77 | 5.98 | 5.95 | 5.48 | 4.23 | 4.39 | 92.6 | 81.1 | 83.2 | 49.8 | 5.73 | 5.24 | 5.79 | 5.79 | 5.29 | 4 | 3.33
3 | COC(=O)C/1=C(C)/N/C(=C(\C1C2=CC(=CC=C2)[N+]([O-])=O)C(=O)OCCCN3CCC(CC3)(C4=CC=CC=C4)C5=CC=CC=C5)C (centres undefined) | 117 | 114 | 104 | 104 | 108 | 114 | 107 | 107 | 100 | 102 | 87.1 | 101 | 99.2 | 93 | 92.4 | 97.7 | 93.5 | 88.3 | 90.7 | 83.3 | 95.3 | 81.8 | 107 | 93.8 | 95.5 | 97.1 | 107 | 109 | 101 | 94.4 | 91.2 | 90.5 | 98.7
4 | COc1ccc2[nH]cc(CCNC(C)=O)c2c1 | 115 | 115 | 125 | 131 | 114 | 129 | 118 | 119 | 131 | 112 | 114 |  |  |  |  |  |  |  |  |  |  |  |  |  |  |  |  |  |  |  |  |  | 
5 | CCOC(=O)N[C@@H]1CC[C@@H]2[C@@H](C1)C[C@H]1C(=O)O[C@H](C)[C@H]1[C@H]2/C=C/c1ccc(-c2cccc(F)c2)cn1 |  |  |  |  |  |  |  |  |  |  |  | 114 | 115 | 122 | 128 | 127 | 121 | 120 | 131 | 127 | 142 | 79 | 125 | 112 | 122 | 109 | 115 | 118 | 133 | 129 | 131 | 125 | 76.8
6 | CCCCCN(CCC12CC3CC(CC(C3)C1)C2)C(=O)NCCCc1ccncc1 | 111 | 120 | 116 | 114 | 115 | 109 | 108 | 93.7 | 111 | 112 | 97.3 | 98.2 | 110 | 107 | 110 | 116 | 113 | 97.8 | 113 | 96.5 | 107 | 98.4 | 104 | 102 | 119 | 120 | 116 | 107 | 116 | 111 | 116 | 94.1 | 99.1
7 | NNc1nncc2ccccc12 | 115 | 125 | 131 | 139 | 144 | 146 | 134 | 139 | 132 | 119 | 128 | 123 | 121 | 128 | 126 | 151 | 124 | 135 | 130 | 128 | 137 | 131 | 121 | 139 | 121 | 130 | 137 | 132 | 141 | 138 | 134 | 131 | 141
8 | CC[C@H]1CN2CCc3cc(OC)c(OC)cc3[C@@H]2C[C@@H]1C[C@H]1NCCc2cc(OC)c(OC)cc21 | 95.5 | 105 | 101 | 107 | 104 | 98.5 | 54.7 | 22.7 | 8.84 | 10.8 | 7.47 | 103 | 127 | 122 | 109 | 121 | 111 | 50.4 | 27 | 11.4 | 9.75 | 8.48 | 106 | 102 | 98.3 | 123 | 118 | 109 | 47.5 | 27.8 | 14.9 | 9.41 | 8.82

From the supplement of paper PMC11451515
